The source made the active and inactive calls. No cut-off for these calls is given here.
Key:
[1] = tested on: PC-3; experiment: Antiproliferative activity against human PC-3 cells assessed as inhibition of cell proliferation by MTT assay; assay type: functional, cell-based
[2] = Cytotoxicity against mouse L929 cells assessed as inhibition of cell proliferation by MTT assay; assay type: toxicity, cell-based
[3] = tested on: A549; experiment: Antiproliferative activity against human A549 cells assessed as inhibition of cell proliferation by MTT assay; assay type: functional, cell-based
[4] = tested on: HepG2; experiment: Antiproliferative activity against human HepG2 cells assessed as inhibition of cell proliferation by MTT assay; assay type: functional, cell-based
[5] = tested on: HepG2; experiment: Potency index, ratio of PD IC50 to test compound IC50 for antiproliferative activity against human HepG2 cells assessed as inhibition of cell proliferation by MTT assay; assay type: functional
[6] = tested on: HepG2; experiment: Effect on cell morphology in human HepG2 cells at 5 uM by DAPI staining based analysis; assay type: functional

For CC1(C)CCC[C@](C)([C@@H]2CC[C@]3(C)[C@@H]2[C@H](O)C[C@H]2[C@@]4(C)CC[C@H](OC(=O)CSc5nc6cccc(Cl)c6c(=O)[nH]5)C(C)(C)[C@@H]4CC[C@]23C)O1, the IC50 [1] was over 100 µM, the IC50 [2] was over 100 µM and the IC50 [3] was 83 µM. The IC50 [4] was 67.8 µM.
For CC1(C)CCC[C@](C)([C@@H]2CC[C@]3(C)[C@@H]2[C@H](O)C[C@H]2[C@@]4(C)CC[C@H](O)C(C)(C)[C@@H]4CC[C@]23C)O1, the IC50 [1] was 68.3 µM, the IC50 [2] was over 100 µM and the IC50 [3] was 58.4 µM. The IC50 [4] was 59.2 µM.
With CC1(C)CCC[C@](C)([C@@H]2CC[C@]3(C)[C@@H]2[C@H](O)C[C@H]2[C@@]4(C)CC[C@H](OC(=O)CSc5nc(-c6cccc(O)c6)c(C#N)c(=O)[nH]5)C(C)(C)[C@@H]4CC[C@]23C)O1 the IC50 [1] was 20.8 µM, the IC50 [2] was 78.5 µM and the IC50 [3] was 14.3 µM. For the same compound, the IC50 [4] was 9.35 µM.
For Cc1ccc(-c2nc(SCC(=O)O[C@H]3CC[C@@]4(C)[C@@H](CC[C@]5(C)[C@H]4C[C@@H](O)[C@@H]4[C@H]([C@@]6(C)CCCC(C)(C)O6)CC[C@]45C)C3(C)C)[nH]c(=O)c2C#N)cc1, the IC50 [1] was 7.73 µM, the IC50 [2] was 77.4 µM and the “Ratio IC50” value [5] was 12. The IC50 [3] was 6.77 µM and the IC50 [4] was 4.51 µM.
CC1(C)CCC[C@](C)([C@@H]2CC[C@]3(C)[C@@H]2[C@H](O)C[C@H]2[C@@]4(C)CC[C@H](OC(=O)CSc5nc6ccc(Cl)cc6c(=O)[nH]5)C(C)(C)[C@@H]4CC[C@]23C)O1 showed an IC50 [1] of over 100 µM, an IC50 [2] of over 100 µM and an IC50 [3] of over 100 µM. The IC50 [4] was 80.5 µM.
Work on COc1cccc(-c2nc(SCC(=O)O[C@H]3CC[C@]4(C)[C@H]5C[C@@H](O)[C@@H]6[C@H]([C@@]7(C)CCCC(C)(C)O7)CC[C@@]6(C)[C@]5(C)CC[C@H]4C3(C)C)[nH]c(=O)c2C#N)c1 yielded an IC50 [1] of 8.98 µM, an IC50 [2] of 64.5 µM and an IC50 [3] of 6.84 µM. The IC50 [4] was 6.85 µM.
With O=c1[nH]cc(F)c(=O)[nH]1 [FLUOROURACIL] the Activity [6] was “inactive”, the IC50 [2] was over 100 µM and the IC50 [3] was 29.2 µM.
CC1(C)CCC[C@](C)([C@@H]2CC[C@]3(C)[C@@H]2[C@H](O)CC2[C@@]4(C)CC[C@H](OC(=O)CSc5nc(-c6cccc(Cl)c6)c(C#N)c(=O)[nH]5)C(C)(C)[C@@H]4CC[C@]23C)O1 (stereo not given in full) showed an IC50 [1] of 8.44 µM, an IC50 [2] of 74.9 µM and an IC50 [3] of 7.14 µM. It also gave an IC50 [4] of 7.09 µM.
In the case of CC1(C)CCC[C@](C)([C@@H]2CC[C@]3(C)[C@@H]2[C@H](O)CC2[C@@]4(C)CC[C@H](OC(=O)CSc5nc(-c6cccc(F)c6)c(C#N)c(=O)[nH]5)C(C)(C)[C@@H]4CC[C@]23C)O1 (stereo not given in full), the IC50 [1] is reported as 8.19 µM, the IC50 [2] is reported as 76 µM and the IC50 [3] is reported as 6.98 µM. It also gave an IC50 [4] of 7.56 µM.
In the case of CC1(C)CCC[C@](C)([C@@H]2CC[C@]3(C)[C@@H]2[C@H](O)C[C@H]2[C@@]4(C)CC[C@H](OC(=O)CSc5nc(-c6ccncc6)c(C#N)c(=O)[nH]5)C(C)(C)[C@@H]4CC[C@]23C)O1, the IC50 [1] is reported as 15.8 µM, the IC50 [2] is reported as 77.1 µM and the IC50 [3] is reported as 17.3 µM. It also gave an IC50 [4] of 12.8 µM.
For CC1(C)CCC[C@](C)([C@@H]2CC[C@]3(C)[C@@H]2[C@H](O)CC2[C@@]4(C)CC[C@H](OC(=O)CSc5nc(-c6ccc(F)cc6)c(C#N)c(=O)[nH]5)C(C)(C)[C@@H]4CC[C@]23C)O1 (stereo not given in full), the IC50 [1] was 7.82 µM, the IC50 [2] was 76 µM and the IC50 [3] was 9.09 µM. The IC50 [4] was 7.75 µM.
With CC1(C)CCC[C@](C)([C@@H]2CC[C@]3(C)[C@@H]2[C@H](O)C[C@H]2[C@@]4(C)CC[C@H](OC(=O)CSc5nc6c(Cl)cccc6c(=O)[nH]5)C(C)(C)[C@@H]4CC[C@]23C)O1 the IC50 [1] was 62.3 µM, the IC50 [2] was over 100 µM and the IC50 [3] was over 100 µM. For the same compound, the IC50 [4] was over 100 µM.
With CC1(C)CCC[C@](C)([C@@H]2CC[C@]3(C)[C@@H]2[C@H](O)CC2[C@@]4(C)CC[C@H](OC(=O)CSc5nc(-c6ccc(C(F)(F)F)cc6)c(C#N)c(=O)[nH]5)C(C)(C)[C@@H]4CC[C@]23C)O1 (stereo not given in full) the IC50 [1] was 8.74 µM, the IC50 [2] was 68.7 µM and the “Ratio IC50” value [5] was 21. It also gave an IC50 [3] of 7.03 µM and an IC50 [4] of 3.16 µM.
For COc1cc(-c2nc(SCC(=O)O[C@H]3CC[C@@]4(C)[C@@H](CC[C@]5(C)[C@H]4C[C@@H](O)[C@@H]4C([C@@]6(C)CCCC(C)(C)O6)CC[C@]45C)C3(C)C)[nH]c(=O)c2C#N)cc(OC)c1OC (stereo not given in full), the IC50 [1] was 13.3 µM, the IC50 [2] was 77.7 µM and the IC50 [3] was 7.6 µM. For the same compound, the IC50 [4] was 7.71 µM.
For CC1(C)CCC[C@](C)([C@@H]2CC[C@]3(C)[C@@H]2[C@H](O)C[C@H]2[C@@]4(C)CC[C@H](OC(=O)CSc5nc6ccc(Br)cc6c(=O)[nH]5)C(C)(C)[C@@H]4CC[C@]23C)O1, the IC50 [1] was over 100 µM, the IC50 [2] was over 100 µM and the IC50 [3] was over 100 µM. The IC50 [4] was over 100 µM.
With CC1(C)CCC[C@](C)([C@@H]2CC[C@]3(C)[C@@H]2[C@H](O)CC2[C@@]4(C)CC[C@H](OC(=O)CSc5nc(-c6ccc(Cl)cc6)c(C#N)c(=O)[nH]5)C(C)(C)[C@@H]4CC[C@]23C)O1 (stereo not given in full) the IC50 [1] was 7.42 µM, the IC50 [2] was 76.8 µM and the IC50 [3] was 6.79 µM. For the same compound, the IC50 [4] was 6.39 µM.
CC1(C)CCC[C@](C)([C@@H]2CC[C@]3(C)[C@@H]2[C@H](O)C[C@H]2[C@@]4(C)CC[C@H](OC(=O)CSc5nc6ccc([N+](=O)[O-])cc6c(=O)[nH]5)C(C)(C)[C@@H]4CC[C@]23C)O1 gave an IC50 [1] of over 100 µM, an IC50 [2] of over 100 µM and an IC50 [3] of over 100 µM. For the same compound, the IC50 [4] was 59.8 µM.
Cc1ccc2nc(SCC(=O)O[C@H]3CC[C@@]4(C)[C@@H](CC[C@]5(C)[C@H]4C[C@@H](O)[C@@H]4[C@H]([C@@]6(C)CCCC(C)(C)O6)CC[C@]45C)C3(C)C)[nH]c(=O)c2c1 showed an IC50 [1] of over 100 µM, an IC50 [2] of over 100 µM and an IC50 [3] of over 100 µM. The IC50 [4] was over 100 µM.
With CC1(C)CCC[C@](C)([C@@H]2CC[C@]3(C)[C@@H]2[C@H](O)CC2[C@@]4(C)CC[C@H](OC(=O)CSc5nc(-c6ccc(Br)cc6)c(C#N)c(=O)[nH]5)C(C)(C)[C@@H]4CC[C@]23C)O1 (stereo not given in full) the IC50 [1] was 9.72 µM, the IC50 [2] was 77 µM and the IC50 [3] was 7.51 µM. The IC50 [4] was 5.91 µM.
CC1(C)CCC[C@](C)([C@@H]2CC[C@]3(C)[C@@H]2[C@H](O)CC2[C@@]4(C)CC[C@H](OC(=O)CSc5nc(-c6cccc(Br)c6)c(C#N)c(=O)[nH]5)C(C)(C)[C@@H]4CC[C@]23C)O1 (stereo not given in full) showed an IC50 [1] of 6.53 µM, an IC50 [2] of 70.3 µM and an IC50 [3] of 6.69 µM. It also gave an IC50 [4] of 5.95 µM.
Cc1cccc(-c2nc(SCC(=O)O[C@H]3CC[C@@]4(C)[C@@H](CC[C@]5(C)[C@H]4C[C@@H](O)[C@@H]4[C@H]([C@@]6(C)CCCC(C)(C)O6)CC[C@]45C)C3(C)C)[nH]c(=O)c2C#N)c1 showed an IC50 [1] of 17 µM, an IC50 [2] of 77.1 µM and an IC50 [3] of 13.6 µM. For the same compound, the IC50 [4] was 14.1 µM.
With CC1(C)CCC[C@](C)([C@@H]2CC[C@]3(C)[C@@H]2[C@H](O)C[C@@H]2[C@@]4(C)CC[C@H](OC(=O)CSc5nc(-c6ccccc6)c(C#N)c(=O)[nH]5)C(C)(C)[C@@H]4CC[C@]23C)O1 the IC50 [1] was 9.82 µM, the IC50 [2] was 74.7 µM and the IC50 [3] was 8.9 µM. For the same compound, the IC50 [4] was 7.6 µM.
With COc1ccc(-c2nc(SCC(=O)O[C@H]3CC[C@@]4(C)[C@@H](CC[C@]5(C)[C@H]4C[C@@H](O)[C@@H]4C([C@@]6(C)CCCC(C)(C)O6)CC[C@]45C)C3(C)C)[nH]c(=O)c2C#N)cc1 (stereo not given in full) the IC50 [1] was 9.45 µM, the IC50 [2] was 76.3 µM and the IC50 [3] was 6.88 µM. The IC50 [4] was 5.09 µM.
With CC1(C)CCC[C@](C)([C@@H]2CC[C@]3(C)[C@@H]2[C@H](O)C[C@H]2[C@@]4(C)CC[C@H](OC(=O)CSc5nc6ccc(F)cc6c(=O)[nH]5)C(C)(C)[C@@H]4CC[C@]23C)O1 the IC50 [1] was over 100 µM, the IC50 [2] was over 100 µM and the IC50 [3] was 56.6 µM. For the same compound, the IC50 [4] was 70.5 µM.
CC1(C)CCC[C@](C)(C2CC[C@]3(C)[C@@H]2[C@H](O)C[C@H]2[C@@]4(C)CC[C@H](OC(=O)CSc5nc(-c6c[nH]c7ccccc67)c(C#N)c(=O)[nH]5)C(C)(C)[C@@H]4CC[C@]23C)O1 (stereo not given in full) showed an IC50 [1] of 10.8 µM, an IC50 [2] of 76.1 µM and an IC50 [3] of 7.17 µM. It also gave an IC50 [4] of 5.21 µM.
In the case of CC1(C)CCC[C@](C)([C@@H]2CC[C@]3(C)[C@@H]2[C@H](O)C[C@H]2[C@@]4(C)CC[C@H](OC(=O)CSc5nc6cc(Cl)ccc6c(=O)[nH]5)C(C)(C)[C@@H]4CC[C@]23C)O1, the IC50 [1] is reported as over 100 µM, the IC50 [2] is reported as over 100 µM and the IC50 [3] is reported as over 100 µM. It also gave an IC50 [4] of over 100 µM.

— ChEMBL document CHEMBL5236586, “Novel ginsenoside derivatives induce apoptosis in HepG-2 cells via the MDM2-p53 signaling pathway” (Bioorg Med Chem Lett, 2022)
